For one test, the system named is S. aureus. The test is described as follows: disk-diffusion assay of penicillin-loaded polymers. It is filed as cell-based. The note with it: Staphylococcus aureus. Here is the method:
FIG. 8B is a 3-D plot of inhibition zones of penicillin, penicillin loaded cobaltocenium-containing polymers (PCo-Peni), and penicillin loaded cobaltocenium-boronic acid-containing copolymers (PCo-PPB-Peni) against six strains of bacteria using different amounts of penicillin (A: 5 μg penicillin-G alone, B: PCo-Peni with 5 μg penicillin-G, C: PCo-PPB-Peni with 5 μg penicillin-G, D: 10 μg penicillin-G, E: PCo-Peni with 10 μg penicillin-G, F: PCo-PPB-Peni with 10 μg penicillin-G).
For the bacteria, a single colony was inoculated in 30 mL tryptic soy broth (TSB) at 37° C. for 24 hours, shaking at 190 rpm/min. All bacteria were grown to an optical density of about 1.00 (OD600=1.00) for further use. To conduct the agar disk-diffusion assays, actively-growing cultures of each bacterial strain on mannitol salt agar (MSA) were inoculated on tryptic soy broth (TSB) agar plates. The bacterial growth culture (cell concentrations were 1.0×10^6 CFU/mL) was diluted from 10 μL to 1 mL in tryptic soy broth (TSB) and 100 μL was spread on TSB agar plates to form a bacterial lawn covering the plate surface. Then, 6 mm (diameter) filter discs were added to the plate surface, aqueous cobaltocenium-boronic acid-containing copolymers (PCo-PPB) at different concentrations were added to disks, and the plates were incubated at 28° C. for 18 h. […]
Background: In agar diffusion tests the substance spreads into inoculated agar from a disc or well.

In test [1] the test system is six strains of bacteria (S. aureus, E. faecalis, E. coli, P. vulgaris, P. aeruginosa and K. pneumoniae). The test is described as follows: LIVE/DEAD bacteria viability assay by CSLM. It is filed as cell-based. Particulars: 18-hour incubation at 37° C.; penicillin-G 5, PCo-PPB 11 μg, PCo-PPB-Peni 16 μg per 1 mL.
Experimental: One (1) mL of active bacterial stock of various strains was introduced to 5 penicillin-G, 11 μg cobaltocenium-boronic acid-containing copolymer, and 16 μg penicillin-loaded cobaltocenium-boronic acid-containing copolymers (penicillin-G weight: 5 m), respectively. An untreated cell suspension was used as the control. Following 18-hour incubation at 37° C., 1 μL LIVE/DEAD BacLight (Bacterial Viability Kit; INVITROGEN INC.®) was added to the incubation solution. After incubation for 15 minutes, cells were imaged using a LEICA TCS SP5® Laser Scanning Confocal Microscope with a 63X oil immersion lens.

A word on the zone of inhibition: it is the size of the clear area around the sample on an inoculated plate. A high value points to a stronger effect on the plate.

The molecule `CC1(C)S[C@@H]2[C@H](NC(=O)Cc3ccccc3)C(=O)N2[C@H]1C(=O)O` [penicillin-G] displayed a zone of inhibition at 5 µg/disc in the test on S. aureus (5 μg penicillin-G) of 7 mm. The molecule further yielded a zone of inhibition at 10 µg/disc with S. aureus (10 μg penicillin-G) of 14.5 mm. Further, in test [1], the “killing of bacteria (LIVE/DEAD BacLight)” value is listed as “not effective at killing bacteria”.

For the origin of these results see US20180250328A1, “Metallocene-boronic acid-containing compounds and copolymers as antimicrobial agents” (University of South Carolina, priority 2017, published 2018).
